One experiment has as its system sensitive test strain. Put plainly: Test-disc bioassay of antibacterial activity of gallidermin preparations. In kind it is cell-based. The conditions noted are these: dilutions of stock solutions on test discs, same concentrations. As for the experimental part:
FIGS. 12A and B show the result of the proteolytic (trypsin) conversion of pregallidermins into gallidermin. […] Dilutions for a stock solution of either compound were applied onto test discs and incubated in the presence of a sensitive test strain. […] Pre-gallidermins (1.09 g/l) were incubated with trypsin (0.2 g/l) 1 h, RT, pH 6.5,
Of all proteases examined, only trypsin appeared to be suitable for a commercial and industrialised process. […] We have disclosed the feasibility to selectively cleave pre-gallidermins into mature gallidermin using serine-type proteases and trypsin in particular. While we have employed soluble enzyme preparations, alternatives, such as immobilized enzyme preparations, could be used instead. This would facilitate the repetitive use of such enzymes and avoid possible contaminations of the final product by trypsin, even though, trypsin is generally regarded as safe (GRAS).

The test system of the next experiment is S. gallinarum (pGV5). Nature of the experiment: Minimum inhibitory concentration of kanamycin used for selection. It counts as cell-based, Staphylococcus gallinarum. The settings on record: B-medium. The protocol:
FIG. 4 is a schematic representation of the strategy employed for the selection of gdmP knock-out strains. Cm: chloramphenicol; Kan: kanamycin; MIC: minimum inhibitory concentration; R: resistance; S: sensitivity;
A first S. gallinarum (pGV5) culture was started inoculating 10 ml kanamycin-supplemented ([…]) B-medium with a single colony of a transformed cell. Culture was incubated shaking with 225 rpm at 30° C., a temperature that allowed pGV5 to replicate as free plasmid (permissive temperature), until late stationary phase (16h). With this culture, new cultures were inoculated (1:100) and incubated shaking with 225 rpm at 30° C. into the late stationary phase (16 h). […] This step was repeated once, before diluting the cultures 1:100 into 100 ml B-medium containing no antibiotic. Growth at 40° C. was extended for another 24 hours.

The text below walks through data of US20100009405A1, “Biosynthetic process for the preparation of gallidermin” (priority 2005, published 2010).

Values after ≈ are worked out from the molar mass of the structure shown. Ends that are not written are not given here.

For “gallidermin [in-situ activated gallidermin] (IASKFLCTPGCAKTGSFNSYCC; also: lantibiotic with dehydroamino residues and thioether bridges, places not given here, in-situ activated form; UniProt P21838 31-52, looked up)”, the “bioactivity compared with gallidermin isolated from the wild-type strain” value with sensitive test strain was “same bioactivity”.

`NC[C@H]1O[C@H](O[C@H]2[C@H](O)[C@@H](O[C@H]3O[C@H](CO)[C@@H](O)[C@H](N)[C@H]3O)[C@H](N)C[C@@H]2N)[C@H](O)[C@@H](O)[C@@H]1O` [kanamycin]: the MIC value against S. gallinarum (pGV5) is 7500 µg/mL (≈ 15.5 mM).
